From publication PMC8813987, “Schwann cell endosome CGRP signals elicit periorbital mechanical allodynia in mice” (Nature Communications, 2022)

Molecular target: T1, CLR/RAMP1 (calcitonin receptor-like receptor) (Homo sapiens, UniProt O60894+Q16602)
T1 construct: gene CALCRL; with RAMP1
Assay: inhibition of CGRP-evoked Ca2+ response in primary human Schwann cells (preincubation, then washout)
Assay type: cell-based

T1 sequence (Q16602 23-461): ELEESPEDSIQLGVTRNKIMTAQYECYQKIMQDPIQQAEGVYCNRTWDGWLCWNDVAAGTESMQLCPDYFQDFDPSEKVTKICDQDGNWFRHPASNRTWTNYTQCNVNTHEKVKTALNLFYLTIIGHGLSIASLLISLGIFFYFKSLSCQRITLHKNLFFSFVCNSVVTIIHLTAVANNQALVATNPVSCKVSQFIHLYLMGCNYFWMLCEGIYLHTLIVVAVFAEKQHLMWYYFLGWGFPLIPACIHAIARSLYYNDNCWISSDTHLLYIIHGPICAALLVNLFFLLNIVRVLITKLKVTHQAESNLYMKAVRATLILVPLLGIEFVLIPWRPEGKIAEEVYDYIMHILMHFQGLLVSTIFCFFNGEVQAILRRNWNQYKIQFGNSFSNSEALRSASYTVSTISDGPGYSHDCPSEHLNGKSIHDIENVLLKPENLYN
T1 sequence (O60894 27-148): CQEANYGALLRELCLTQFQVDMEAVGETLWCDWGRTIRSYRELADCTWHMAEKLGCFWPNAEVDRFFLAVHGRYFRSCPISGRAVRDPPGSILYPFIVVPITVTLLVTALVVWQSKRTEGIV

SMILES: O=C(CN1C(=O)C2(CCCC2)NC[C@H]1c1cc(F)cc(F)c1)Nc1ccc2c(c1)C[C@@]1(C2)C(=O)Nc2ncccc21 [MK-3207]
- IC50: 2.9 µM
